Data reported in US8691986B2, “Azetidine and piperidine compounds useful as PDE10 inhibitors” (Amgen Inc., priority 2012, dated 2014).

Experiments:
human PDE2A1 = human PDE2A1 (Homo sapiens (Human), UniProt O00408); test: PDE2A inhibition, PDE IMAP TR-FRET assay; assay type: biochemical; details: FAM-cAMP substrate
Experimental: Purified human PDE2A1 and PDE10A2 enzymes were obtained from BPS Bioscience (San Diego, Calif.). IMAP™ TR-FRET progressive binding system, FAM-cAMP substrate were from Molecular Devices (Sunnyvale, Calif.).
The PDE IMAP assay was conducted in a 384-well black Greiner polypropylene plate (Sigma, St. Louis, Mo.). PDE inhibitors were serial diluted in 100% DMSO and dispensed into assay plate at […] per well using Echo® Liquid Handling System from LABCYTE. Ten μL of PDE enzyme in IMAP reaction buffer (10 mM Tris-HCl, pH 7.2, 10 mM MgCl2, 0.05% NaN3, and 0.01% Tween-20) was added into the assay wells. The PDE enzyme concentration used was based on each lot of enzyme activity, to ensure enzyme reaction falls in a linear range under assay condition. 1.4 nM of PDE2 or […] PDE10 were used in the assay system. Enzyme was pre-incubated with inhibitors for 60 minutes at room temperature before addition of 10 uL of substrate addition, which results in 100 nM of FAM-cAMP in the reaction. Enzyme reaction was allowed to proceed at room temperature for 90 min, and the reaction is stopped by 55 μl addition of binding reagent according to manufacturer's recommendation. The mixture is further incubated at room temperature for additional 4 hours, and signal was read on an Envision multimode reader (PerkinElmer). Fluorescence signals were measured at 520 nm and 485 nm. The signal ratio at 520/485 nm corresponded to the generation of reaction product of AMP, and it was used in all data analysis. Values from DMSO-treated wells were normalized to POC=100, and no-enzyme wells were normalized to POC=0. IC50 values were determined by using the Genedata Screener V9.0.1. The curve fitting algorithm used for dose response data analysis in Genedata Screener is a custom implementation of a robust curve-fitting algorithm called ROUT (Robust regression with outlier detection) and uses a four-parameter logistical (4 PL) Hill model.

PDE10 = PDE10 (Rattus norvegicus (Rat), UniProt Q9QYJ6); test: PDE10 ex vivo receptor occupancy (RO) screening in rat striatum; details: oral, 10 mpk, 1 h (footnote A)
Experimental: The ex vivo screening protocol was approved by Amgen's Institutional Animal Care and Use Committee (IACUC) and in accordance with the National Institutes of Health Guide for Care and Use of Laboratory Animals in facilities accredited by the Association for the Assessment and Accreditation of Laboratory Animal Care (AALAC).
PDE10 inhibitors were dissolved in 2% Hydroxypropylmethylcellulose (HPMC), 1% Tween-80, pH 2.2 with methanesulfonic acid. Male Sprague Dawley® rats weighing 180-225 g (4 per group) were dosed orally with either vehicle or PDE10 inhibitors (3 mg/kg or 10 mg/kg) and then returned to their home cage to allow for absorption of the compounds. After one hour (with 10 mg/kg PDE10 inhibitor) or four hours (with 3 mg/kg or 10 mg/kg PDE10 inhibitor) rats were sacrificed by CO2 inhalation. Blood was obtained by heart puncture and plasma was frozen and stored at −80° C. for exposure analysis. Brains were removed and immediately frozen in chilled methylbutane, and stored at −80° C. until cutting. Three coronal brain slices per brain containing the striatum were cut at […] using a cryostat and placed onto microscope slides, air-dried and stored at −20° C. For radioligand binding experiments, slides were thawed at room temperature and then incubated with 1 nM a tritium labeled tracer compound (insert citation) in binding buffer (150 mM Phosphate-buffered saline containing 2 mM MgCl2 and 100 mM DTT, pH 7.4) for 1 minute at 4° C. To assess non-specific binding, slides containing adjacent brain sections were incubated in the same solution with addition of […] of an unlabelled, structurally unrelated PDE10 antagonist. Afterwards slides were washed 3 times in ice-cold binding buffer, dipped into distilled water to remove buffer salts, and dried under a stream of cold air. Emission of beta particles from the sections was counted for 8 hours in a Beta Imager 2000 (Biospace, Paris, France) and digitized and analyzed using M3 Vision software (Biospace, Paris, France). Total binding radioactivity in the striatum was measured as cpm/mm^2 in hand-drawn regions of interest and averaged across the three sections per brain. Non-specific binding was subtracted to obtain specific binding values and percent occupancy was calculated by setting vehicle specific binding as 0% occupancy.

human PDE2A1, sequence (O00408 other isoform, or with tags, fused parts or gaps): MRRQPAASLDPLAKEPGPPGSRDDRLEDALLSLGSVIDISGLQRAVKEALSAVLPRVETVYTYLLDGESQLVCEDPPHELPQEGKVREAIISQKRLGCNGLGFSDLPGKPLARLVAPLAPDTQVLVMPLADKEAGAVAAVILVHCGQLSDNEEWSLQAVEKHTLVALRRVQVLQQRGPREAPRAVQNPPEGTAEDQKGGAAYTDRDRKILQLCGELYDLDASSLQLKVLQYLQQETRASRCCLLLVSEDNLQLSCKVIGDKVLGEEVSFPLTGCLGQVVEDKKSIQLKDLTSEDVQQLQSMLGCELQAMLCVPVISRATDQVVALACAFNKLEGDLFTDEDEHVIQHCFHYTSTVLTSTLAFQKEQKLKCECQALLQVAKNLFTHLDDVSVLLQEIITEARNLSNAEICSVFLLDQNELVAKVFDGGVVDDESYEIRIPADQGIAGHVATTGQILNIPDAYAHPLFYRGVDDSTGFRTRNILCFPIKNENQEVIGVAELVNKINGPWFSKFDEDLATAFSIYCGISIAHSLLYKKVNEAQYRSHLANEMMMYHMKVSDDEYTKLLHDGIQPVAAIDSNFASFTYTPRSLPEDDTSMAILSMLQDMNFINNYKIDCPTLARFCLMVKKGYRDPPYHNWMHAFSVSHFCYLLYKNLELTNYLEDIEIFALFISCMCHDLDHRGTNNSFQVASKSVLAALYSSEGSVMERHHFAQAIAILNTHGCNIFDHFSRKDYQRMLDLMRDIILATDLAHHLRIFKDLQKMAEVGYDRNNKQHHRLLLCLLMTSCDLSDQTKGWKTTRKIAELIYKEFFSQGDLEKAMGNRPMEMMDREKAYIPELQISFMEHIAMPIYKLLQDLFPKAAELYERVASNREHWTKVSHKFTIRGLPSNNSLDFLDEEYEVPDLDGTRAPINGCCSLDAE
PDE10, sequence (Q9QYJ6 whole entry): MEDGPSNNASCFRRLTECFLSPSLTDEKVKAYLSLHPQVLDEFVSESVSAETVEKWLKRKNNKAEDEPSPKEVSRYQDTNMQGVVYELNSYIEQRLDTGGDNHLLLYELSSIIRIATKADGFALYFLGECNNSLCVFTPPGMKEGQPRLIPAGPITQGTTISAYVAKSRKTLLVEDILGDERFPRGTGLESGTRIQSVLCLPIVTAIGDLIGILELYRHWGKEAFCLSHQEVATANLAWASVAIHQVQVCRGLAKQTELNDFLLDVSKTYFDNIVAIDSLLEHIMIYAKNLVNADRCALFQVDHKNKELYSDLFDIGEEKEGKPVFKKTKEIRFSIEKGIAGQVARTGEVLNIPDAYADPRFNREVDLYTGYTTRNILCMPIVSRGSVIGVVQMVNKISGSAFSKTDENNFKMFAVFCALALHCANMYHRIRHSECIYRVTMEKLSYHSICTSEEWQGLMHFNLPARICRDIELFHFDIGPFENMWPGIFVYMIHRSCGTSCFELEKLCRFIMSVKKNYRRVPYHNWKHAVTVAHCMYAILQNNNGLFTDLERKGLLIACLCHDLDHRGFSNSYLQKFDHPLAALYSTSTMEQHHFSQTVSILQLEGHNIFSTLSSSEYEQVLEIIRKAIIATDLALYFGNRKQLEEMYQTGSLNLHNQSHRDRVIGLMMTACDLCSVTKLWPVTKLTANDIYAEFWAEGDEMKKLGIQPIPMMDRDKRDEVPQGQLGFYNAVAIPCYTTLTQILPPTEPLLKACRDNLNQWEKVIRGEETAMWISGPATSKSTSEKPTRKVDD

| SMILES | IC50 (human PDE2A1) [µM] | receptor occupancy at 10 mg/kg (PDE10) [%] |
| --- | --- | --- |
| NC(=O)c1ccc(-c2nccnc2C2CN(c3ccc4ccccc4n3)C2)cc1 [Compound 15, 4-(3-(1-(2-quinolinyl)-3-azetidinyl)-2-pyrazinyl)benzamide, reference compound] | 10 | 47.7 |
| NC(=O)c1ccc(-c2nccnc2C2CN(c3ccc4ccccc4n3)C2)cc1F [Compound 16, 2-fluoro-4-(3-(1-(quinolin-2-yl)azetidin-3-yl)pyrazin-2-yl)benzamide, reference compound] | 3.3 | 52.3 |
| CNC(=O)c1cccc(-c2nccnc2C2CN(c3ccc4ccccc4n3)C2)c1 [Compound 17, N-methyl-3-(3-(1-(quinolin-2-yl)azetidin-3-yl)pyrazin-2-yl)benzamide, reference compound] | 2.16 | 72 |
